# Literature values in patent US8440702B2, “1,3-oxazolidin -2-one derivatives useful as CETP inhibitors” (Merck Sharp & Dohme Corp., priority 2005, dated 2013).
# Conditions: clinical trials terminated
compound,measurement,value
CCOC(=O)N1c2ccc(C(F)(F)F)cc2[C@@H](N(Cc2cc(C(F)(F)F)cc(C(F)(F)F)c2)C(=O)OC)C[C@H]1CC [torcetrapib],mortality in patients using the drug during outcomes studies,increased mortality
